Experimental data from US20240131044A1, “METHOD FOR TREATING CANCER” (M.T.3, Inc., priority 2022, published 2024).

Experiments:
V79 cells = assay: Colony formation, survival fraction of V79 cells; type: cell-based, Chinese hamsters
Description: (§1) An anti-cancer agent and a pharmaceutical composition were administered to test cells and then the cells were cultured. Then, after colonies were formed, the number of colonies was counted. Here, samples in which the concentration of the anti-cancer agent to be administered was varied were prepared, and in each sample, the survival fraction of the cells compared with the case where cells were cultured without administration of the pharmaceutical composition was measured. Regarding the type of anti-cancer agent to be administered, a predetermined anti-cancer agent was selected depending on the type of administration target cells. Note that cells that were cultured without administration of the pharmaceutical composition and the anti-cancer agent were used as a control. Hereinafter, these steps will be described.
(§2) Here, CHO cells, V79 cells, and canine-derived cancer cells were prepared as the test cells. The CHO cells are ovarian cells derived from Chinese hamsters, and the V79 cells are fibroblasts derived from the lungs of Chinese hamsters. Melanoma developing cells (CML6M) and soft tissue sarcoma developing cells (STSA-1) were used as the cancer cells.
(§3) The cancer cells were prepared by being cultured using an αMEM culture medium supplemented with 10% serum and an antibiotic. The cancer cells were prepared such that, when the concentration of the cells in a cell suspension obtained by subjecting the cultured cells to PBS washing and trypsin treatment, the concentration was within a predetermined concentration range. Here, the predetermined concentration ranges were 300 cells/well, 100 to 150 cells/well, and 500 to 1000 cells/well for the CHO/V79 cells, the melanoma cells, and the soft tissue sarcoma cells, respectively.
Next, the cancer cells were cultured in culture environments to which the anti-cancer agent was added at various concentrations, and were then allowed to form colonies. The culture periods for colony formation were a week, 10 days, and 14 days for CHO and V79, melanoma, and soft tissue sarcoma, respectively. After colonies were formed, washing using a physiological saline solution, fixation using 100% ethanol, and staining using 0.1% crystal violet were performed, and then the number of colonies per well was counted under a microscope. Note that, here, the colony was defined as containing 50 or more cells. […]
A graph with the horizontal axis representing the concentration of the anti-cancer agent and the vertical axis representing the survival fraction was created by plotting the survival fraction measurement results relative to the SQAP administration amounts, and the effect of the addition of SQAP on the survival fraction was examined. Hereinafter, the results from each anti-cancer agent will be shown in a table and described. […]
V79 cells were used as the cells, and cisplatin was used as the anti-cancer agent. The cisplatin was administered at concentrations of 0 μg/mL, 0.1 μg/mL, 0.2 μg/mL, 0.3 μg/mL, 0.4 μg/mL, and 0.5 μg/mL.
V79 cells were used as the cells, and camptothecin was used as the anti-cancer agent. The amount of the camptothecin was set to 0 nM, 5 nM, 10 nM, 15 nM, and 20 nM.
V79 cells were used as the cells, and mitomycin C was used as the anti-cancer agent. The amount of MMC was set to 0 nM, 100 nM, 200 nM, 300 nM, 400 nM, and 500 nM. […]
V79 cells were used as the cells, and taxol was used as the anti-cancer agent. The amount of the taxol was set to 0 nM, 10 nM, 20 nM, and 30 nM.
V79 cells were used as the cells, and MMS was used as the anti-cancer agent. The amount of the MMS was set to 0 μM, 10 μM, 20 μM, 30 μM, and 40 μM.
(§4) In the above examples, the anti-cancer agent and the pharmaceutical composition were administered to the test cells and then the cells were cultured. […]

[1] = system: Melanoma developing cells (CML6M); assay: Colony formation, survival fraction of canine melanoma cells; type: cell-based
Description: as §1, §2, §3
(§5) Next, the cancer cells were cultured in culture environments to which the anti-cancer agent was added at various concentrations, and were then allowed to form colonies. The culture periods for colony formation were a week, 10 days, and 14 days for CHO and V79, melanoma, and soft tissue sarcoma, respectively. After colonies were formed, washing using a physiological saline solution, fixation using 100% ethanol, and staining using 0.1% crystal violet were performed, and then the number of colonies per well was counted under a microscope. Note that, here, the colony was defined as containing 50 or more cells. Moreover, mitomycin C, doxorubicin, bleomycin, camptothecin, etoposide, taxol, methyl methanesulfonate, and cisplatin were used as the anti-cancer agent.
(§6) A graph with the horizontal axis representing the concentration of the anti-cancer agent and the vertical axis representing the survival fraction was created by plotting the survival fraction measurement results relative to the SQAP administration amounts, and the effect of the addition of SQAP on the survival fraction was examined. Hereinafter, the results from each anti-cancer agent will be shown in a table and described.
Canine-derived melanoma cells and soft tissue sarcoma cells were used as the cells, and doxorubicin was used as the anti-cancer agent. […] Also, the concentration of the doxorubicin administered to the soft tissue sarcoma cells was set to 0 nM, 5 nM, 10 nM, and 15 nM. […] In Table 2, survival fractions in the case where SQAP was not administered are shown with a solid line, survival fractions in the case where SQAP was administered at a concentration of 10 μM are shown with a broken line, survival fractions in the case where SQAP was administered at a concentration of 20 μM are shown with a 1-dot chain line, and survival fractions in the case where SQAP was administered at a concentration of 30 μM are shown with a 2-dot chain line.
as §4

[2] = system: soft tissue sarcoma developing cells (STSA-1); assay: Colony formation, survival fraction of canine soft tissue sarcoma cells; type: cell-based
Description: as §1, §2, §3, §5, §6
Canine-derived melanoma cells and soft tissue sarcoma cells were used as the cells, and doxorubicin was used as the anti-cancer agent. The amount of the doxorubicin administered to the melanoma cell was set to 0 nM, 5 nM, 10 nM, 15 nM, 20 nM, and 25 nM. […] In Table 2, survival fractions in the case where SQAP was not administered are shown with a solid line, survival fractions in the case where SQAP was administered at a concentration of 10 μM are shown with a broken line, survival fractions in the case where SQAP was administered at a concentration of 20 μM are shown with a 1-dot chain line, and survival fractions in the case where SQAP was administered at a concentration of 30 μM are shown with a 2-dot chain line.
as §4

Question: What does the source list for `CCCCCCCCCCCCCCCCCC(=O)OCCCO[C@H]1O[C@H](CS(=O)(=O)O)[C@@H](O)[C@H](O)[C@H]1O` [SQAP, sulfoquinovosylacylpropanediol]?
Answer: survival fraction (V79 cells; MMS 40 μM + SQAP 10 μM): about 7%; survival fraction (V79 cells; MMS 40 μM + SQAP 20 μM): less than 1%; survival fraction (V79 cells; SQAP 10 μM alone): 10%; survival fraction (V79 cells; SQAP 20 μM alone): 10%; survival fraction of cells after culture, SQAP and anti-cancer agent in combination compared with SQAP alone (V79 cells; any anti-cancer agent of the examples): decreased; survival fraction (V79 cells; bleomycin 15 nM + SQAP 10 μM): about 20%; survival fraction (V79 cells; bleomycin 15 nM + SQAP 20 μM): about 2%; survival fraction (V79 cells; camptothecin 20 nM + SQAP 10 μM): about 12%; survival fraction (V79 cells; camptothecin 20 nM + SQAP 20 μM): about 3%; survival fraction (V79 cells; cisplatin 0.3 μg/mL + SQAP 10 μM (b65 prints 1011M)): about 8%; survival fraction (V79 cells; cisplatin 0.3 μg/mL + SQAP 20 μM (b65 prints 20 without unit)): about 5%; survival fraction (V79 cells; etoposide 30 nM + SQAP 10 μM): about 9%; survival fraction (V79 cells; etoposide 30 nM + SQAP 20 μM): about 8%; survival fraction (V79 cells; mitomycin C 500 nM + SQAP 10 μM): about 2%; survival fraction (V79 cells; mitomycin C 500 nM + SQAP 20 μM): about 1.8%; survival fraction (V79 cells; taxol 30 nM + SQAP 10 μM): about 2%; survival fraction (V79 cells; taxol 30 nM + SQAP 20 μM): about 2%; survival fraction ([1]; melanoma cells, doxorubicin 15 nM + SQAP 10 μM): about 10%; survival fraction ([1]; melanoma cells, doxorubicin 15 nM + SQAP 20 μM): about 3%; survival fraction ([1]; melanoma cells, doxorubicin 15 nM + SQAP 30 μM): about 0.4%; survival fraction ([1]; melanoma developing cells, SQAP 10 μM alone): about 90%; survival fraction ([1]; melanoma developing cells, SQAP 20 μM alone): about 85%; survival fraction ([1]; melanoma developing cells, SQAP 30 μM alone): about 60%; survival fraction ([1]; melanoma developing cells, doxorubicin 10 μM + SQAP 10 μM (as restated in Example 10)): about 10%; survival fraction ([1]; melanoma developing cells, doxorubicin 10 μM + SQAP 20 μM (as restated in Example 10)): about 3%; survival fraction ([1]; melanoma developing cells, doxorubicin 10 μM + SQAP 30 μM (as restated in Example 10)): about 0.4%; survival fraction ([2]; soft tissue sarcoma cells, doxorubicin 10 nM + SQAP 10 μM): about 2%; survival fraction ([2]; soft tissue sarcoma cells, doxorubicin 10 nM + SQAP 20 μM): about 2%; survival fraction ([2]; soft tissue sarcoma cells, doxorubicin 10 nM + SQAP 30 μM): about 0.7%; survival fraction ([2]; soft tissue sarcoma developing cells, SQAP 10 μM alone): about 90%; survival fraction ([2]; soft tissue sarcoma developing cells, SQAP 20 μM alone): about 75%; survival fraction ([2]; soft tissue sarcoma developing cells, SQAP 30 μM alone): about 45%; survival fraction ([2]; soft tissue sarcoma developing cells, doxorubicin 10 μM + SQAP 10 μM (as restated in Example 10)): about 2%; survival fraction ([2]; soft tissue sarcoma developing cells, doxorubicin 10 μM + SQAP 20 μM (as restated in Example 10)): about 2%; survival fraction ([2]; soft tissue sarcoma developing cells, doxorubicin 10 μM + SQAP 30 μM (as restated in Example 10)): about 0.7%
